Laboratory results: patent US20180334436A1 (VIIV HEALTHCARE UK LIMITED, priority 2015, published 2018)

These compounds were tested on HIV (assay: MT4 assay (anti-HIV activity)). Conditions: Human immunodeficiency virus 1, 96 h, antiviral HIV activity in HTLV-1 transformed cell line MT-4; luciferase read 96 hours later; 10 point dose response.
Type: cell-based
Procedure, shortened: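 MT-4 cells infected with HIV, with inhibition readout by CellTiter-Glo luminescence at 96 h relative to no-compound control. Cytotoxicity measured in parallel under the same conditions. IC50 from a 10-point, 3-4-fold dilution series spanning >1000-fold, fitted with a four-parameter logistic equation.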

How did the IC50 turn out when `Cc1c(-c2c(C)c3c(c(C)c2[C@H](OC(C)(C)C)C(=O)O)CC(=O)N(Cc2ccccc2)C3)cc(F)c2c1CCCO2` (atropisomer, axis not shown; (M)) [Example 102, (S)(M)-2-(2-benzyl-7-(8-fluoro-5-methylchroman-6-yl)-5,8-dimethyl-3-oxo-1,2,3,4-tetrahydroisoquinolin-6-yl)-2-(tert-butoxy)acetic Acid] was run?
Its IC50 is 3 nM.

For `Cc1ccc(-c2c(C)c3c(c(C)c2C(OC(C)(C)C)C(=O)O)CN(Cc2ccccc2)C(=O)C3)cc1` (stereo not shown) [Example 99, 2-(2-Benzyl-5,8-dimethyl-3-oxo-6-(p-tolyl)-1,2,3,4-tetrahydroisoquinolin-7-yl)-2-(tert-butoxy)acetic Acid], which IC50 is on record?
Its IC50 is 3300 nM.

For `Cc1ccc(-c2c(C)c3c(c(C)c2[C@H](OC(C)(C)C)C(=O)O)CCN(S(=O)(=O)CC2CCCCC2)C3)cc1` [Example 58, (S)-2-(tert-butoxy)-2-(2-((cyclohexylmethyl)sulfonyl)-5,8-dimethyl-7-(p-tolyl)-1,2,3,4-tetrahydroisoquinolin-6-yl)acetic Acid], which IC50 is on record?
Its IC50 is 284 nM.

`Cc1ccc(-c2c(C)c3c(c(C)c2[C@H](OC(C)(C)C)C(=O)O)CCN(C(=O)c2ccccc2)C3)cc1` [Example 48, (S)-2-(2-benzoyl-5,8-dimethyl-7-(p-tolyl)-1,2,3,4-tetrahydroisoquinolin-6-yl)-2-(tert-butoxy)acetic Acid] was tested. Which IC50 did it give?
The IC50 was 325 nM.

With `Cc1ccc(-c2c(C)c3c(c(C)c2[C@H](OC(C)(C)C)C(=O)O)CCN(C(=O)c2ccccn2)C3)cc1` [Example 42, (S)-2-(tert-butoxy)-2-(5,8-dimethyl-2-picolinoyl-7-(p-tolyl)-1,2,3,4-tetrahydroisoquinolin-6-yl)acetic Acid] as the compound, how does the IC50 read?
The IC50 was 1140 nM.

With `Cc1ccc(-c2c(C)c3c(c(C)c2[C@H](OC(C)(C)C)C(=O)O)CCN(C2CCC4(CC2)CC4)C3)cc1` [Example 51, (S)-2-(tert-butoxy)-2-(5,8-dimethyl-2-(spiro[2.5]octan-6-yl)-7-(p-tolyl)-1,2,3,4-tetrahydroisoquinolin-6-yl)acetic Acid] as the compound, how does the IC50 read?
Its IC50 is 11 nM.

With `Cc1c(-c2c(C)c3c(c(C)c2[C@H](OC(C)(C)C)C(=O)O)CC(=O)N(c2cccc(F)c2)C3)cc(F)c2c1CCCO2` (atropisomer, axis not shown) [Example 103, (S)-2-(tert-Butoxy)-2-((R)-7-(8-fluoro-5-methylchroman-6-yl)-2-(3-fluorophenyl)-5,8-dimethyl-3-oxo-1,2,3,4-tetrahydroisoquinolin-6-yl)acetic Acid] as the compound, how does the IC50 read?
The IC50 was 2 nM.

Which IC50 does the source give for `Cc1ccc(-c2c(C)c3c(c(C)c2[C@H](OC(C)(C)C)C(=O)O)CCN(C(=O)C2CCCCC2)C3)cc1` [Example 47, (S)-2-(tert-butoxy)-2-(2-(cyclohexanecarbonyl)-5,8-dimethyl-7-(p-tolyl)-1,2,3,4-tetrahydroisoquinolin-6-yl)acetic Acid] here?
Its IC50 is 51 nM.

Which IC50 does the source give for `Cc1ccc(-c2c(C)c3c(c(C)c2C(OC(C)(C)C)C(=O)O)CN(C(=O)NC2CCCCC2)CC3)cc1` (stereo not shown) [Example 10, 2-(tert-Butoxy)-2-(2-(cyclohexylcarbamoyl)-5,8-dimethyl-6-(p-tolyl)-1,2,3,4-tetrahydroisoquinolin-7-yl)acetic Acid] here?
Its IC50 is 1480 nM.

How did the IC50 turn out when `COc1c(F)cccc1N1Cc2c(C)c(-c3cc(F)c4c(c3C)CCCO4)c([C@H](OC(C)(C)C)C(=O)O)c(C)c2CC1=O` (atropisomer, axis not shown) [Example 107, (S)-2-(tert-butoxy)-2-((R)-2-(3-fluoro-2-methoxyphenyl)-7-(8-fluoro-5-methylchroman-6-yl)-5,8-dimethyl-3-oxo-1,2,3,4-tetrahydroisoquinolin-6-yl)acetic Acid] was run?
Its IC50 is 2 nM.

Which IC50 does the source give for `Cc1ccc(-c2c(C)c3c(c(C)c2[C@H](OC(C)(C)C)C(=O)O)CCN(C(=O)CN2CCCCC2)C3)cc1` [Example 53, (S)-2-(tert-butoxy)-2-(5,8-dimethyl-2-(2-(piperidin-1-yl)acetyl)-7-(p-tolyl)-1,2,3,4-tetrahydroisoquinolin-6-yl)acetic Acid] here?
The IC50 was 807 nM.

How did the IC50 turn out when `Cc1ccc(-c2c(C)c3c(c(C)c2[C@H](OC(C)(C)C)C(=O)O)CCN(C(=O)C2CCc4ccccc4C2)C3)cc1` (stereo partly drawn) [Example 78, (2S)-2-(tert-butoxy)-2-(5,8-dimethyl-2-(1,2,3,4-tetrahydronaphthalene-2-carbonyl)-7-(p-tolyl)-1,2,3,4-tetrahydroisoquinolin-6-yl)acetic Acid] was run?
Its IC50 is 109 nM.

`Cc1ccc(-c2c(C)c3c(c(C)c2[C@H](OC(C)(C)C)C(=O)O)CCN(C2CC[C@@H](C)C2)C3)cc1` (stereo partly drawn) [Example 73, (2S)-2-(tert-butoxy)-2-(5,8-dimethyl-2-((3R)-3-methylcyclopentyl)-7-(p-tolyl)-1,2,3,4-tetrahydroisoquinolin-6-yl)acetic Acid] was tested. Which IC50 did it give?
Its IC50 is 42 nM.

How did the IC50 turn out when `Cc1ccc(-c2c(C)c3c(c(C)c2[C@H](OC(C)(C)C)C(=O)O)CCN(C2CCCC2)C3)cc1` [Example 32, (S)-2-(tert-Butoxy)-2-(2-cyclopentyl-5,8-dimethyl-7-(p-tolyl)-1,2,3,4-tetrahydroisoquinolin-6-yl)acetic Acid] was run?
The IC50 was 96 nM.

Which IC50 does the source give for `Cc1c(-c2c(C)c3c(c(C)c2[C@H](OC(C)(C)C)C(=O)O)CCN(C(=O)c2ccc(C(F)(F)F)cc2)C3)cc(F)c2c1CCCO2` [Example 94, (S)-2-(tert-Butoxy)-2-((R)-7-(8-fluoro-5-methylchroman-6-yl)-5,8-dimethyl-2-(4-(trifluoromethyl)benzoyl)-1,2,3,4-tetrahydroisoquinolin-6-yl)acetic Acid] here?
Its IC50 is 384 nM.

How did the IC50 turn out when `Cc1ccc(-c2c(C)c3c(c(C)c2[C@H](OC(C)(C)C)C(=O)O)CCN(C(=O)c2cccnc2)C3)cc1` [Example 43, (S)-2-(tert-butoxy)-2-(5,8-dimethyl-2-nicotinoyl-7-(p-tolyl)-1,2,3,4-tetrahydroisoquinolin-6-yl)acetic Acid] was run?
The IC50 was 635 nM.

`Cc1c(-c2c(C)c3c(c(C)c2[C@H](OC(C)(C)C)C(=O)O)CC(=O)N(CC(C)C)C3)cc(F)c2c1CCCO2` (atropisomer, axis not shown) [Example 110] was tested. Which IC50 did it give?
The IC50 was 3 nM.

With `Cc1ccc(-c2c(C)c3c(c(C)c2[C@H](OC(C)(C)C)C(=O)O)CCN(C(=O)c2ccncc2)C3)cc1` [Example 44, (S)-2-(tert-butoxy)-2-(2-isonicotinoyl-5,8-dimethyl-7-(p-tolyl)-1,2,3,4-tetrahydroisoquinolin-6-yl)acetic Acid] as the compound, how does the IC50 read?
The IC50 was 1010 nM.

With `Cc1c(-c2c(C)c3c(c(C)c2[C@H](OC(C)(C)C)C(=O)O)CCN(C(=O)c2cccc(OC(C)C)c2)C3)cc(F)c2c1CCCO2` [Example 93, (S)-2-(tert-Butoxy)-2-((R)-7-(8-fluoro-5-methylchroman-6-yl)-2-(3-isopropoxybenzoyl)-5,8-dimethyl-1,2,3,4-tetrahydroisoquinolin-6-yl)acetic Acid] as the compound, how does the IC50 read?
Its IC50 is 178 nM.

`Cc1ccc(-c2c(C)c3c(c(C)c2C(OC(C)(C)C)C(=O)O)CCN(C(=O)c2cccc(F)c2)C3)cc1` (stereo not shown) [Example 22, 2-(tert-Butoxy)-2-(2-(3-fluorobenzoyl)-5,8-dimethyl-7-(p-tolyl)-1,2,3,4-tetrahydroisoquinolin-6-yl)acetic Acid] was tested. Which IC50 did it give?
The IC50 was 329 nM.

Which IC50 does the source give for `Cc1ccc(-c2c(C)c3c(c(C)c2[C@H](OC(C)(C)C)C(=O)O)CCN(S(=O)(=O)C2CCCCC2)C3)cc1` [Example 45, (S)-2-(tert-butoxy)-2-(2-(cyclohexylsulfonyl)-5,8-dimethyl-7-(p-tolyl)-1,2,3,4-tetrahydroisoquinolin-6-yl)acetic Acid] here?
Its IC50 is 17 nM.

With `Cc1ccc(-c2c(C)c3c(c(C)c2[C@H](OC(C)(C)C)C(=O)O)CCN(C2CC4CCC(C4)C2)C3)cc1` (stereo partly drawn) [Example 74, (2S)-2-(2-(bicyclo[3.2.1]octan-3-yl)-5,8-dimethyl-7-(p-tolyl)-1,2,3,4-tetrahydroisoquinolin-6-yl)-2-(tert-butoxy)acetic Acid] as the compound, how does the IC50 read?
Its IC50 is 12 nM.

Which IC50 does the source give for `Cc1ccc(C(=O)N2CCc3c(C)c([C@H](OC(C)(C)C)C(=O)O)c(-c4cc(F)c5c(c4C)CCCO5)c(C)c3C2)cn1` [Example 96, (S)-2-(tert-Butoxy)-2-((R)-7-(8-fluoro-5-methylchroman-6-yl)-5,8-dimethyl-2-(6-methylnicotinoyl)-1,2,3,4-tetrahydroisoquinolin-6-yl)acetic Acid] here?
Its IC50 is 109 nM.

`COc1ccc(C(=O)N2CCc3c(C)c([C@H](OC(C)(C)C)C(=O)O)c(-c4cc(F)c5c(c4C)CCCO5)c(C)c3C2)cc1F` [Example 92, (S)-2-(tert-Butoxy)-2-((R)-2-(3-fluoro-4-methoxybenzoyl)-7-(8-fluoro-5-methylchroman-6-yl)-5,8-dimethyl-1,2,3,4-tetrahydroisoquinolin-6-yl)acetic Acid] was tested. Which IC50 did it give?
Its IC50 is 153 nM.

Which IC50 does the source give for `Cc1c(-c2c(C)c3c(c(C)c2[C@H](OC(C)(C)C)C(=O)O)CC(=O)N(C2CCCCC2)C3)cc(F)c2c1CCCO2` (atropisomer, axis not shown) [Example 104, (S)-2-(tert-butoxy)-2-((R)-2-cyclohexyl-7-(8-fluoro-5-methylchroman-6-yl)-5,8-dimethyl-3-oxo-1,2,3,4-tetrahydroisoquinolin-6-yl)acetic Acid] here?
The IC50 was 2 nM.

For `Cc1ccc(-c2c(C)c3c(c(C)c2C(OC(C)(C)C)C(=O)O)CN(S(=O)(=O)c2cccc(F)c2)CC3)cc1` (stereo not shown) [Example 11, 2-(tert-Butoxy)-2-(2-((3-fluorophenyl)sulfonyl)-5,8-dimethyl-6-(p-tolyl)-1,2,3,4-tetrahydroisoquinolin-7-yl)acetic Acid], which IC50 is on record?
Its IC50 is 817 nM.

`Cc1ccc(-c2c(C)c3c(c(C)c2[C@H](OC(C)(C)C)C(=O)O)CCN(c2ccccc2)C3)cc1` [Example 36, (S)-2-(tert-Butoxy)-2-(5,8-dimethyl-2-phenyl-7-(p-tolyl)-1,2,3,4-tetrahydroisoquinolin-6-yl)acetic Acid] was tested. Which IC50 did it give?
The IC50 was 148 nM.

How did the IC50 turn out when `Cc1ccc(-c2c(C)c3c(c(C)c2C(OC(C)(C)C)C(=O)O)CCN(C2CCCCC2)C3)cc1` (stereo not shown) [Example 21, 2-(tert-Butoxy)-2-(2-cyclohexyl-5,8-dimethyl-7-(p-tolyl)-1,2,3,4-tetrahydroisoquinolin-6-yl)acetic Acid] was run?
Its IC50 is 27 nM.
